{"source": "patent US9200301B2", "about": "“Marine streptomyces, pyranosesquiterpene compound, as well as preparation method and applications thereof” (SOUTH CHINA SEA INSTITUTE OF OCEANOLOGY, CHINESE ACADEMY OF …, priority 2011, dated 2015)", "key": {"[1]": {"tested_on": "Escherichia coli", "test": "Anti-Escherichia coli activity test (paper sheet / dilution multiple method)", "format": "cell-based", "protocol": "The samples are preliminarily tested and compared with the positive control, namely the rifampicin under the situation that each sample is 100 μg/tablet and the rifampicin taken as a standard product is 1 μg/tablet."}, "[2]": {"tested_on": "Vibrio anguillarum", "conditions": "cited from earlier work; for MIC: against Vibrio anguillarum, values of compounds 2, 3 and 4 referred to Fdhila F et al., Journal of Natural Products, 2003, 66 (10): 1299-1301; for activity against Vibrio anguillarum (in words): compounds 2-4, based on Fdhila F et al."}, "[3]": {"tested_on": "Artemia larvae", "test": "Artemia larva lethal test", "format": "in vivo", "conditions": "for LC50: Artemia larvae, 24 h at room temperature, from corrected mortality; for LC50 value: against Artemia larvae; for lethal Artemia activity (in words): in vivo", "protocol": "(§1) Hatching of Artemia larvae: placing 100 mg of Artemia eggs in a 500 mL beaker, adding 400 mL of artificial sea water, inflating air slowly by using a small inflator pump, hatching at room temperature for 24 h, removing egg shells and the unhatched eggs, and continuously culturing the Artemia larvae for 24 h for later use.\n(§2) The biological lethal method of the Artemia larvae is as follows: taking a 96-well cell culture plate according to a Solis improvement method, and adding 2004, of artificial sea water solution containing 10-15 Artemia in each well to prepare a test culture plate. […] A blank control group and sample groups of each concentration are respectively provided with three parallel holes, 54, of the sample solvent (DMSO) is added for the blank control group, 54, of the sample solutions of different concentrations are respectively added into the sample groups, and the final concentrations are 500 μg/mL, 50 μg/mL and 5 μg/mL respectively. The culture is performed at room temperature for 24 h, and then the number of dead individuals of the Artemia larvae is detected and counted under a binocular dissecting microscope. The biological lethal activity of the Artemia larvae is represented by corrected mortality and is calculated according to the following formula: Corrected mortality=(survival rate of control group−survival rate of treated group)/survival rate of control group×100%\n(§3) The three concentrations and the corresponding corrected mortalities are input into a computer for respectively calculating LC50 and 95% confidence interval thereof."}, "[4]": {"tested_on": "Vibrio anguillarum", "test": "Anti-Vibrio anguillarum activity test (paper sheet / dilution multiple method)", "format": "cell-based", "protocol": "The samples are preliminarily tested under the situation that each sample is 100 μg/tablet, and the samples are found to have better activities. Then a dilution multiple method is adopted for testing the MIC values (the diameters of the paper sheets are 6 mm, 6-10 mm means weak activity, 10-15 mm means medium activity and 15 mm or more means strong activity)."}, "[5]": {"test": "Artemia larva lethal test", "format": "in vivo", "conditions": "Artemia (brine shrimp) larvae, in vivo; against Artemia larvae", "protocol": "as §1, §2, §3"}}, "note": "Entries after “also recorded” stand apart in the source; their conditions may differ. Like-named read-outs stand apart in the source and are kept apart here.", "data": [{"smiles": "O=C1N[C@H](Cc2ccccc2)C(=O)N2C[C@@H](O)C[C@H]12", "note": "(relative stereo) [compound 4, Cyclo(D)-trans-4-OH-Pro-(D)-Phe]", "values": [{"measurement": "inhibitory activity against Escherichia coli (in words)", "setting": "[1]", "result": "weaker"}, {"measurement": "MIC", "setting": "[2]", "result": 0.07, "unit": "µg/mL"}, {"measurement": "activity against Vibrio anguillarum (in words)", "setting": "[2]", "result": "better inhibitory activity; also recorded: great bactericidal activity"}, {"measurement": "LC50", "setting": "[3]", "result": 13.45, "unit": "µg/mL"}, {"measurement": "LC50 value", "setting": "[3]", "result": 13.45, "unit": "µg/mL"}, {"measurement": "lethal Artemia activity (in words)", "setting": "[3]", "result": "better lethal Artemia activity"}]}, {"smiles": "CCCCCC/C=C/CCC1C=CCC(=O)O1", "note": "(stereo not shown) [compound 1]", "values": [{"measurement": "MIC", "setting": "[4]; against Vibrio anguillarum, LB medium, 37° C., observed after 24 h", "result": "> 100", "unit": "µg/mL"}, {"measurement": "inhibitory activity against Vibrio anguillarum (in words)", "setting": "[4]; compound 1", "result": "weaker"}, {"measurement": "inhibitory activity against Escherichia coli (in words)", "setting": "[1]", "result": "better inhibitory activity"}, {"measurement": "MIC", "setting": "[1]; against Escherichia coli, LB medium, 37° C., observed after 24 h, read-out: MIC", "result": 1.58, "unit": "µg/mL"}, {"measurement": "MIC", "setting": "[1]; anti-Escherichia coli activity, read-out: MIC (minimal inhibitory concentration) value", "result": 1.58, "unit": "µg/mL"}, {"measurement": "lethal Artemia activity (in words)", "setting": "[3]", "result": "better lethal Artemia activity; also recorded: very good"}, {"measurement": "LC50 at 24 h", "setting": "[5]", "result": 3.25, "unit": "µg/mL"}]}, {"smiles": "CC[C@@H](C)[C@H]1NC(=O)[C@H]2CCCN2C1=O", "note": "[compound 2, Cyclo(D)-Pro-(D)-Ile]", "values": [{"measurement": "inhibitory activity against Escherichia coli (in words)", "setting": "[1]", "result": "weaker"}, {"measurement": "MIC", "setting": "[2]", "result": 0.05, "unit": "µg/mL"}, {"measurement": "activity against Vibrio anguillarum (in words)", "setting": "[2]", "result": "better inhibitory activity; also recorded: great bactericidal activity"}, {"measurement": "LC50", "setting": "[3]", "result": 55.67, "unit": "µg/mL"}, {"measurement": "LC50 value", "setting": "[3]", "result": 55.67, "unit": "µg/mL"}, {"measurement": "lethal Artemia activity (in words)", "setting": "[3]", "result": "better lethal Artemia activity"}]}, {"smiles": "CC(C)C[C@H]1NC(=O)[C@H]2CCCN2C1=O", "note": "[compound 3, Cyclo(D)-Pro-(D)-Leu]", "values": [{"measurement": "inhibitory activity against Escherichia coli (in words)", "setting": "[1]", "result": "weaker"}, {"measurement": "MIC", "setting": "[2]", "result": 0.04, "unit": "µg/mL"}, {"measurement": "activity against Vibrio anguillarum (in words)", "setting": "[2]", "result": "better inhibitory activity; also recorded: great bactericidal activity"}, {"measurement": "LC50", "setting": "[3]", "result": 87.63, "unit": "µg/mL"}, {"measurement": "LC50 value", "setting": "[3]", "result": 87.63, "unit": "µg/mL"}, {"measurement": "lethal Artemia activity (in words)", "setting": "[3]", "result": "better lethal Artemia activity"}]}]}
